Measured values: patent US7037891B2, “Methods of modulating G-protein-coupled receptor kinase-associated signal transduction” (Children's Medical Center Corporation, priority 1997, dated 2006)

Key:
[1] = Reduction of weight and appetite of normal mice; assay type: in vivo; settings: for change in body weight as compared to control / food consumption as compared to control: NDP-αMSH 0.9 μg/kg BW; for change in body weight as compared to control: KO24H107 21 mg/kg, or both (FIG. 7A); for food consumption as compared to control: KO24H107 21 mg/kg, or both (FIG. 7B)
Protocol: 18 Sabra male mice, 8 weeks old, were used and were divided into four groups as followed:
The animals were weighed before trial and periodically during the trial.
At the same time, food was weighted before it was introduced into cages and at the end of each tested period. From this point on, the follow-up included both weighing of the mice and of the food for the short period, every couple of hours, until night, and later on for the long period, each 24 hour cycle.
The results of FIG. 7A are shown as the percentage of change in body weight as compared to the initial weight for each mice, and then averaged for each group. The calculation of food consumption (FIG. 7B) was calculated in each group relative to the total weight of all animals (4 or 5 animals) and averaged separately for each group.
The above experiment was conducted again with another compound comprising a GRK-derived peptide KO24H112 (SEQ ID NO:5) 16 animals were used as follows: […]

C6 glioblastoma cells = assay: Intracellular cyclic AMP levels (EIA) after isoproterenol activation; assay type: cell-based
Text: It is well known that after activation of the various GPCRs there is an activation of the adenolate cyclase by G-proteins. This raises the cyclic-AMP levels in the cell, and these levels are then decreased due to the desensitization of the receptors by GRK. Thus it is expected that inhibition of GAST will eliminate this decrease in the cyclic AMP levels, and will cause a constitutive increase in cAMP levels.
C6 glioblastoma cells, which are known to express the β-adrenagic receptor (the substrate of GRK). have been used.
To the cells the following compounds were added:
The amount of the activity was measured by measuring the increase of intracellular cyclic AMP levels, which were measured using the commercially available kit of Biotrack Cellular Communication Assay cyclic-AMP enzyme—immunoassay (EIA) system.

[2] = Type II diabetes in sand rats: blood-glucose after i.p. injection; assay type: in vivo, sand rats (psamomys obesus); settings: diabetic sand-rats
Text: Sand-rats (psamomys) which are genetically prone to develop Type II diabetes were used in this study. The genetically selected sand-rats, 3 to 6 months old, were fed an energy-rich diet (Weizmann HE) for about 3 to 10 days until they became diabetic, as judged by their elevated blood-glucose level (see R. Kalman et al., “The Efficiency of Sand Rat Metabolism is Responsible for Development of Obesity and Diabetes”, J. of Basic & Clinical Physiology & Pharmacology (1993), vol. 4, no. 1–2, pp 57–68, the pertinent portions of which are incorporated herein by reference).
The diabetic sand-rats were injected i.p. once a week with a compound comprising GRK-derived peptide K024H107 (SEQ ID NO:10) at a dose of 10 mg/kg. The peptide was prepared by diluting a 10 mM solution of the peptide in 100% DMSO with phosphate buffered saline (PBS) containing 0.1% bovine serum albumin (BSA) to a concentration of 400 μM. […] of the 10 mM peptide in DMSO solution was mixed with 160 μl of 1.6M NH4HCO3 and heated for 40 minutes at 100° C. The resultant solution was then diluted to 400 μM in 2 M Hepes buffer (pH 7.0). This peptide stock solution was labeled “tbi”. The vehicle of the solution for injection included 8% DMSO, 0.67M ammonium bicarbonate, and 2M Hepes. Control animals received an i.p. injection of the vehicle only.

## NDP-αMSH [reference compound]
[1]; normal Sabra male mice
  change in body weight as compared to control: weight decrease
  food consumption as compared to control: decrease in food consumption

## K024H107: GRK-derived peptide, SEQ ID NO.: 10 (LLRRHS; bARK1)
C6 glioblastoma cells; 10 μM compound added first, 1 μM isoproterenol an hour later (FIG. 6)
  cyclic AMP levels: rose significantly
C6 glioblastoma cells; order reversed: 1 μM isoproterenol first, 10 μM compound one hour later (FIG. 6)
  cyclic AMP level: hardly changed
[1]; normal Sabra male mice
  change in body weight as compared to control: weight decrease
  food consumption as compared to control: decrease in food consumption
[1]; normal Sabra male mice, compound alone 21 mg/kg vs NDP-αMSH and combination (FIG. 7A, 7B)
  weight and food consumption effect compared among the three treated groups: strongest effect
[2]; i.p. 10 mg/kg once a week
  animals that became normoglycemic already after the first injection (responders): 4 animals
  rest of the treated animals (nonresponders): normoglycemia: became nornoglycemic after three additional weekly injections
[2]; i.p. 10 mg/kg, after a single injection, vs vehicle controls (FIG. 3, 4)
  blood-glucose: dramatic decrease in blood-glucose to the normal level

## KO24H112: GRK-derived peptide; SEQ ID NO.: 15 in b61, printed SEQ ID NO:5 in b230 (LLRRHSI; bARK1)
[1]; normal mice, 23.2 mg/kg and 31.5 mg/kg, vs vehicle (FIG. 8A)
  weight change: effective in reducing both body weight and consumption
[1]; normal mice, 23.2 mg/kg and 31.5 mg/kg, vs vehicle (FIG. 8B)
  change in food consumption: effective in reducing both body weight and consumption
